These results are taken from patent US4994441A, “Dental anti-plaque and anti-caries agent” (priority 1987, dated 1991).

Assay [1] has as its system A. viscosus OMZ 105.
Assay [2] relates to A. naeslundii ATCC 12104. Particulars: A. naeslundii ATCC 12104, no control of growth phase; desialylated human erythrocytes (A+); none = no inhibition up to 20 mg/ml.
Assay [3] concerns S. sanguis OMZ 9. To be noted: for Inhibition (%) of bacterial adhesion to plastic tubes: 1 mg/ml, 4 h; for Inhibitory effect on adhesion to plastic tubes (in words): preliminary tests.
For assay [4], the system named is A. viscosus OMZ 105. Particulars: for Inhibition (%) of bacterial adhesion to plastic tubes: 1 mg/ml, 4 h; for Inhibitory effect on adhesion to plastic tubes (in words): preliminary tests.
The subject of assay [5] is S. mutans OMZ 176. Briefly: Inhibition of bacterial adhesion to plastic (polypropylene) tubes. To be noted: 1 mg/ml, 4 h.

In the case of `OC[C@H]1O[C@@H](O[C@H]2[C@H](O)[C@@H](O)C(O)O[C@@H]2CO)[C@H](O)[C@@H](O)[C@H]1O` (some centres unmarked) [Lactose], the “Minimum concentration resulting in complete inhibition of hemagglutination” value in assay [1] (A. viscosus OMZ 105, no control of growth phase, desialylated human erythrocytes (A+), none = no inhibition up to 20 mg/ml) is recorded as “none”; in assay [2], “none”. In addition, the “Concentration expressed in galactoside equivalents/ml (minimum concentration resulting in complete inhibition of hemagglutination)” value in assay [1] (A. viscosus OMZ harvested in the exponential phase) is more than 10 mg/mL. In assay [1] (A. viscosus OMZ harvested in the exponential phase, none = no inhibition up to 20 mg/ml), the “Concentration expressed in dry weight/ml (minimum concentration resulting in complete inhibition of hemagglutination)” value is recorded as “none”.

`COC1OC(CO)C(O)C(O)C1O` (stereo not drawn) [Methyl α annoside]: the figures for the “Inhibition (%) of bacterial adhesion to plastic tubes” value (“Inhibition (%) of bacterial adhesion” for short) in assay [3], in assay [4] and in assay [5] were 11%, 10% and 3%, respectively.

For the compound `O=C[C@H](O)[C@@H](O)[C@H](O)[C@H](O)CO` [glucose], the “Inhibitory effect on adhesion to plastic tubes (in words)” value in assay [3] and in assay [4] was “nonactivity” each time.

For `NCC(=O)O` [glycine], the “Inhibitory effect on adhesion to plastic tubes (in words)” value in assay [3] and in assay [4] was “nonactivity” throughout.

For Polyglutamic acid, the “Inhibition (%) of bacterial adhesion” value amounted to 6% in assay [3], 22% in assay [4] and 20% in assay [5].

As for Polylysine, the “Inhibition (%) of bacterial adhesion” value amounted to 12% in assay [3], 46% in assay [4] and 30% in assay [5].
